In US9820972B2, “Antiviral compounds highly effective as HCV-NS5A inhibitor” (priority 2013, dated 2017) one finds EC50 data, which are given here for 33 compounds.

For the first assay, the system named is GT-1a of NS5A Replicon. The experiment in a line: HCV double reporter gene (Renilla luciferase) replicon assay, GT-1a. The note with it: GT-1a replicon; class symbols; read-out: EC50 For GT-1a of NS5A Replicon. Format: cell-based, Hepatitis C virus (HCV). Here is the method:
Antiviral Assay for Inhibition Activity (EC50):
The study is completed by a new constructed double reporter genes replicon assay system, the capacity of viral replicon in infected cell is determined by detecting the reporter gene Renilla luciferase. The relationship of reporter genes, HCV RNA replicon and viral proteins is well linear. 8 gradient concentrations for 2-fold dilution, 3 wells, 3 times repetition and 1 or 2 control drugs are set to finally determine EC50 of compound.
THF was distilled from sodium metal and benzophenone. DCM, pentane and hexane were distilled form calcium hydride. Special raw material and intermediate in the invention were ordered by contract synthesis from Zannan SciTech Co., Let in China, others reagents were purchased from Shanghai reagent company, Aldrich, Acros etc. As intermediates or products during the synthesis is not required for the reaction and other tests the next step, the synthesis is repeated until a sufficient number of times. The invention of the prepared compounds of […] (HCV NS5A) inhibitory activity test was performed by CRO service units such as WuXi AppTec etc.
In general terms: In a reporter assay the amount or activity of a reporter protein is the signal.
Take `CNC(=O)NC(C(=O)N1CC=C[C@H]1c1nc(-c2ccc(-c3ccc(-c4c[nH]c(C5CCCN5C(=O)[C@@H](NC(=O)NC)C(C)C)n4)cc3)cc2)c[nH]1)C(C)C` (stereo partly drawn) [Compound 6ch]: the concentration giving a half-maximal response (EC50) (in general, the concentration that produces a half-maximal response) lay within 0.001 to 0.999 nM.

Consider `COC(=O)N[C@H](C(=O)N1CCC[C@H]1c1nc2cc(-c3csc4c(-c5ccc(-c6c[nH]c([C@@H]7CCCN7C(=O)[C@H](NC(=O)OC)c7ccccc7)n6)cc5)csc34)ccc2[nH]1)C(C)C` [Ref-4, reference compound], for which the 50% effective concentration (EC50) fell in the range of 0.001 to 0.999 nM.

The same assay, now with this note: Hepatitis C virus, GT1A, GT-1a replicon; class symbols; read-out: EC50 For GT-1a of NS5A Replicon.
Consider `COC(=O)N[C@H](C(=O)N1C[C@@H](OC(=O)N2Cc3ccc4c(c3C2)OCO4)CC1c1nc(-c2ccc(-c3ccc(-c4c[nH]c([C@@H]5COCCN5C(=O)[C@@H](NC(=O)OC)C(C)C)n4)cc3)cc2)c[nH]1)C(C)C` (stereo partly drawn) [Compound 6ai], for which the half-maximal effective concentration (EC50) was 0.001 to 0.999 nM. The same measure, in the same setting: the same measure for `COC(=O)N[C@H](C(=O)N1C[C@@H](OC(=O)N2Cc3cc4c(cc3C2)OCO4)CC1c1nc(-c2ccc(-c3ccc(-c4c[nH]c([C@@H]5CCCCN5C(=O)[C@@H](NC(=O)OC)C(C)C)n4)cc3)cc2)c[nH]1)C(C)C` (stereo partly drawn) [Compound 6ac]: 0.001 to 0.999 nM; for `COC(=O)N[C@H](C(=O)N1CN(C(=O)N2Cc3cccc(OC)c3C2)CC1c1nc(-c2ccc(-c3ccc(-c4c[nH]c([C@@H]5CCCN5C(=O)[C@@H](NC(=O)OC)C(C)C)n4)cc3)cc2)c[nH]1)C(C)C` (stereo partly drawn) [Compound 6aw]: 0.001 to 0.999 nM. Same read-out and setting: the same measure for `COC(=O)N[C@H](C(=O)N1CCC[C@H]1c1ncc(-c2ccc(-c3ccc(-c4cnc([C@@H]5CCCN5C(=O)[C@@H](NC(=O)N(C)C)C(C)C)[nH]4)cc3)cc2)[nH]1)C(C)C` [Compound 6de]: 0.001 to 0.999 nM; for `COC(=O)N[C@H](C(=O)N1CC=CC1c1nc(-c2ccc(-c3ccc(-c4c[nH]c([C@@H]5COCCN5C(=O)[C@@H](NC(=O)OC)C(C)C)n4)cc3)cc2)c[nH]1)C(C)C` (stereo partly drawn) [Compound 6bm]: 0.001 to 0.999 nM. On the same count and under the same terms, under `COC(=O)N[C@H](C(=O)N1CCCC1c1nc(-c2ccc(-c3ccc(-c4c[nH]c([C@@H]5CCCN5C(=O)C5(NC(=O)OC)CCCC5)n4)cc3)cc2)c[nH]1)C(C)C` (stereo partly drawn) [Compound 6z] stands 0.001 to 0.999 nM. Regarding `COC(=O)N[C@H](C(=O)N1CC(OC(=O)N2Cc3cc4c(cc3C2)OCO4)CC1c1nc(-c2ccc3c(ccc4cc(-c5c[nH]c([C@@H]6CCCN6C(=O)[C@@H](NC(=O)OC)C(C)C)n5)ccc43)c2)c[nH]1)C(C)C` (stereo partly drawn) [Compound 6bt], the concentration for a half-maximal effect (EC50) was 0.001 to 0.999 nM. The same measure, in the same setting: the same measure for `COC(=O)N[C@H](C(=O)N1CC(OC(=O)N2Cc3cc4c(cc3C2)OCO4)CC1c1nc(-c2ccc(-c3cccc4c(-c5c[nH]c([C@@H]6CCCN6C(=O)[C@@H](NC(=O)OC)C(C)C)n5)cccc34)cc2)c[nH]1)C(C)C` (stereo partly drawn) [Compound 6bu]: 0.001 to 0.999 nM; for `COC(=O)N[C@@H](C(=O)N1CC=C[C@H]1c1ncc(-c2cc3sc(-c4ccc(-c5cnc([C@@H]6CCCN6C(=O)[C@H](NC(=O)OC)c6ccccc6)[nH]5)cc4)cc3s2)[nH]1)c1ccccc1` [Compound 6fk]: 0.001 to 0.999 nM. The same measure, in the same setting: the same measure for `CC(C)(C)OC(=O)N[C@H](C(=O)N1CCC[C@H]1c1nc(-c2ccc(-c3ccc(-c4cnc([C@@H]5C[C@@H](OC(=O)N6Cc7ccc8c(c7C6)OCO8)CN5C(=O)[C@@H](NC(=O)OC(C)(C)C)C(C)(C)C)[nH]4)cc3)cc2)c[nH]1)C(C)(C)C` [Compound 6c]: greater than 50 nM; for `COC(=O)N[C@H](C(=O)N1CN(C(=O)N2Cc3cc4c(cc3C2)OCO4)CC1c1nc(-c2ccc(-c3ccc(-c4c[nH]c([C@@H]5CC6(CC6)CN5C(=O)[C@@H](NC(=O)OC)C(C)C)n4)cc3)cc2)c[nH]1)C(C)C` (stereo partly drawn) [Compound 6am]: 0.001 to 0.999 nM; for `COC(=O)N[C@H](C(=O)N1CCC[C@H]1c1nc(-c2ccc(-c3ccc(-c4cnc([C@@H]5C[C@@H](OC(=O)N6Cc7cccc(F)c7C6)CN5C(=O)[C@@H](NC(=O)OC)C(C)C)[nH]4)cc3)cc2)c[nH]1)C(C)C` [Compound 6s]: 0.001 to 0.999 nM. On the same count and under the same terms, the same measure for `COC(=O)N[C@H](C(=O)N1CCCC1c1nc2cc(-c3ccc4c(c3)C(F)(F)c3cc(-c5c[nH]c([C@@H]6C=CCN6C(=O)[C@@H](NC(=O)OC)C(C)C)n5)ccc3-4)ccc2[nH]1)C(C)C` (stereo partly drawn) [Compound 6bq]: 0.001 to 0.999 nM.

With `COC(=O)N[C@H](C(=O)N1CC=CC1c1nc(-c2ccc(-c3ccc(-c4c[nH]c([C@@H]5CCCN5C(=O)C5(NC(=O)OC)CCCCC5)n4)cc3)cc2)c[nH]1)C(C)C` (stereo partly drawn) [Compound 6bj], the 50% effective concentration (EC50) is 0.001 to 0.999 nM. Same read-out and setting: under `COC(=O)N[C@H](C(=O)N1CC=CC1c1ncc(-c2ccc(-c3csc4c(-c5c[nH]c([C@@H]6CCCN6C(=O)[C@H](NC(=O)OC)c6ccccc6)n5)csc34)cc2)[nH]1)C(C)C` (stereo partly drawn) [Compound 6ft] stands 0.001 to 0.999 nM. Consider `COC(=O)NC(C(=O)N1CC=C[C@H]1c1ncc(-c2ccc(-c3ccc(-c4cnc([C@@H]5CCCN5C(=O)[C@@H](NC(=O)OC)C(C)C)[nH]4)cc3)cc2)[nH]1)C1CCCC1` (stereo partly drawn) [Compound 6dh], for which the EC50 was 0.001 to 0.999 nM. As for `COC(=O)N[C@H](C(=O)N1C[C@@H](OC(=O)N2Cc3ccc4c(c3C2)OCO4)CC1c1nc(-c2ccc(-c3ccc(-c4c[nH]c([C@@H]5CCCCN5C(=O)[C@@H](NC(=O)OC)C(C)C)n4)cc3)cc2)c[nH]1)C(C)C` (stereo partly drawn) [Compound 6ad], the EC50 was 0.001 to 0.999 nM. Same read-out and setting: the same measure for `COC(=O)N[C@@H](C(=O)N1CC=C[C@H]1c1nc(-c2ccc(-c3ccc(-c4cnc([C@@H]5CC6(CN5C(=O)[C@H](NC(=O)OC)c5ccccc5)OCCO6)[nH]4)cc3)cc2)c[nH]1)c1ccccc1` [Compound 6dv]: 0.001 to 0.999 nM; for `COC(=O)N[C@@H](C(=O)N1CC=C[C@H]1c1ncc(-c2ccc(-c3cc4sc(-c5cnc([C@@H]6CCCN6C(=O)[C@H](NC(=O)OC)c6ccccc6)[nH]5)cc4s3)cc2)[nH]1)c1ccccc1` [Compound 6fh]: 0.001 to 0.999 nM; for `COC(=O)N[C@@H](C(=O)N1CC=CC1c1nc(-c2ccc(-c3cc4sc(-c5c[nH]c(C6C=CCN6C(=O)[C@H](NC(=O)OC)c6ccccc6)n5)cc4s3)cc2)c[nH]1)c1ccccc1` (stereo partly drawn) [Compound 6fe]: 0.001 to 0.999 nM.

Take `COC(=O)N[C@H](C(=O)N1CC(OC(=O)N2Cc3cc4c(cc3C2)OCO4)CC1c1nc(-c2ccc3c(c2)C(F)(F)c2cc(-c4c[nH]c([C@@H]5CCCN5C(=O)[C@@H](NC(=O)OC)C(C)C)n4)ccc2-3)c[nH]1)C(C)C` (stereo partly drawn) [Compound 6bp]: the EC50 lay in the range of 0.001 to 0.999 nM. In the case of `COC(=O)N[C@H](C(=O)N1CC=C[C@H]1c1ncc(-c2ccc(-c3ccc(-c4cnc([C@@H]5C=CCN5C(=O)[C@@H](NC(=O)OC)C5CCCCC5)[nH]4)cc3)cc2)[nH]1)C1CCCCC1` [Compound 6dm], the concentration for a half-maximal effect (EC50) lay in the range of 0.001 to 0.999 nM. Same read-out and setting: the same measure for `COC(=O)N[C@H](C(=O)N1C[C@H](OC(=O)N2Cc3cc4c(cc3C2)OCO4)CC1c1ncc(-c2ccc(-c3ccc(-c4c[nH]c([C@@H]5CCCN5C(=O)[C@@H](NC(=O)OC)C(C)C)n4)cc3)cc2)[nH]1)C(C)C` (stereo partly drawn) [Compound 6i]: 0.001 to 0.999 nM; for `COC(=O)N[C@H](C(=O)N1CCCC1c1nc(-c2ccc(-c3ccc(-c4c[nH]c([C@@H]5C=CCN5C(=O)C(NC(=O)N(C)C)C(C)C)n4)cc3)cc2)c[nH]1)C(C)C` (stereo partly drawn) [Compound 6ci]: 0.001 to 0.999 nM. With `COC(=O)N[C@H](C(=O)N1CC=C[C@H]1c1ncc(-c2ccc(-c3ccc(-c4cnc([C@@H]5CCCN5C(=O)[C@@H](NC(=O)OC)C5CCCCC5)[nH]4)cc3)cc2)[nH]1)C1CCCCC1` [Compound 6dk], the EC50 is 0.001 to 0.999 nM. Still for that read-out and setting: the same measure for `COC(=O)N[C@H](C(=O)N1CC=C[C@H]1c1ncc(-c2ccc(-c3ccc(-c4cnc([C@@H]5CN(C(=O)OC(C)(C)C)CN5C(=O)[C@@H](NC(=O)OC)C5CCCCC5)[nH]4)cc3)cc2)[nH]1)C(C)C` [Compound 6cy]: 0.001 to 0.999 nM.

Still in this assay, the particulars now being: Hepatitis C virus, GT1A, read-out: EC50 For GT-1a of NS5A Replicon.
Consider `CC(C)[C@H](NC(=O)OC(C)(C)C)C(=O)N1C[C@H](OC(=O)N2Cc3cc4c(cc3C2)OCO4)C[C@H]1c1nc(-c2ccc(-c3ccc(-c4cnc([C@@H]5C[C@@H](OC(=O)N6Cc7cc8c(cc7C6)OCO8)CN5C(=O)[C@@H](NC(=O)OC(C)(C)C)C(C)C)[nH]4)cc3)cc2)c[nH]1` [Compound 6p], for which the 50% effective concentration (EC50) is greater than 50 nM. Same read-out and setting: under `CC(C)[C@H](NC(=O)OC1CCCC1)C(=O)N1C[C@H](OC(=O)N2Cc3ccc4c(c3C2)OCO4)C[C@H]1c1nc(-c2ccc(-c3ccc(-c4cnc([C@@H]5C[C@@H](OC(=O)N6Cc7ccc8c(c7C6)OCO8)CN5C(=O)[C@@H](NC(=O)OC5CCCC5)C(C)C)[nH]4)cc3)cc2)c[nH]1` [Compound 6g] stands greater than 50 nM.

In the case of `CC(C)[C@H](NC(=O)OC(C)(C)C)C(=O)N1C[C@H](OC(=O)N2Cc3ccc4c(c3C2)OCO4)CC1c1ncc(-c2ccc(-c3ccc(-c4c[nH]c([C@@H]5C[C@@H](OC(=O)N6Cc7ccc8c(c7C6)OCO8)CN5C(=O)[C@@H](NC(=O)OC(C)(C)C)C(C)C)n4)cc3)cc2)[nH]1` (stereo partly drawn) [Compound 6f], the EC50 was greater than 50 nM. Same read-out and setting: the same measure for `COC(=O)N[C@H](C(=O)N1C[C@H](OC(=O)N2Cc3ccc4c(c3C2)OCO4)C[C@H]1c1nc(-c2ccc(-c3ccc(-c4cnc([C@@H]5C[C@@H](OC(=O)N6Cc7ccc8c(c7C6)OCO8)CN5C(=O)[C@@H](NC(=O)OC)C(C)C)[nH]4)cc3)cc2)c[nH]1)C(C)C` [Compound 6e]: greater than 50 nM; for `CC(C)[C@H](NC(=O)OC1CCCC1)C(=O)N1C[C@H](OC(=O)N2Cc3cc4c(cc3C2)OCO4)C[C@H]1c1nc(-c2ccc(-c3ccc(-c4cnc([C@@H]5C[C@@H](OC(=O)N6Cc7cc8c(cc7C6)OCO8)CN5C(=O)[C@@H](NC(=O)OC5CCCC5)C(C)C)[nH]4)cc3)cc2)c[nH]1` [Compound 6q]: greater than 50 nM.
